# Test results published in patent US9637491B2, “Pyrazolo[4,3-D]pyrimidines as kinase inhibitors” (Origenis GmbH, priority 2012, dated 2017).
# Target: T1, SYK kinase (Homo sapiens, UniProt P43405)
# T1 construct: purchased Invitrogen, Carlsbad
# Test: SYK assay (OMNIA Kinase Assay, Invitrogen)
# Assay type: biochemical
# Details: SYK Activities; 1 mM ATP, 10 μM Omnia Peptide Substrate Tyr 7, 30° C.
# How it was run: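 Continuous-read fluorescence kinase assay: SOX-labelled Tyr 7 peptide (10 μM) with 1 mM ATP and 0.2 mM DTT, 30° C, reaction started by adding SYK. Fluorescence (ex 360/em 485 nm) read every 30 s for 30 min. IC50 from sigmoidal fit of reaction velocity versus inhibitor concentration.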
row,Structure (SMILES),IC50 [µM]
1,"c1cc(N2CCOCC2)ccc1Nc1nc(-c2ccc3[nH]ncc3c2)nc2cn[nH]c12 [Example 179, 5-(1H-indazol-5-yl)-N-(4-morpholinophenyl)-1H-pyrazolo[4,3-d]pyrimidin-7-amine]",0.01 to 0.1
2,"COc1cc(Nc2nc(-c3c(F)cccc3Cl)nc3cn[nH]c23)ccc1N1CCOCC1 [Example 514, 5-(2-chloro-6-fluorophenyl)-N-(3-methoxy-4-morpholinophenyl)-1H-pyrazolo[4,3-d]pyrimidin-7-amine]",0.01 to 0.1
3,"O=C1OCCN1c1ccc(Nc2nc(-c3ccco3)nc3cn[nH]c23)cc1 [Example 115, 3-(4-((5-(furan-2-yl)-1H-pyrazolo[4,3-d]pyrimidin-7-yl)amino)phenyl)oxazolidin-2-one]",0.01 to 0.1
4,"c1nn(C2CCOCC2)cc1Nc1nc(-c2nc3c(s2)CCCC3)nc2cn[nH]c12 [Example 496, N-(1-(tetrahydro-2H-pyran-4-yl)-1H-pyrazol-4-yl)-5-(4,5,6,7-tetrahydrobenzo[d]thiazol-2-yl)-1H-pyrazolo[4,3-d]pyrimidin-7-amine]",0.01 to 0.1
5,"COc1ccc(Nc2nc(C3CCOC3)nc3cn[nH]c23)cc1OC (centres unmarked) [Example 80, N-(3,4-dimethoxyphenyl)-5-(tetrahydrofuran-3-yl)-1H-pyrazolo[4,3-d]pyrimidin-7-amine]",0.1 to 1
6,"OC1CCN(c2ccc(Nc3nc(-c4ccco4)nc4cn[nH]c34)cc2)CC1 [Example 450, 1-(4-((5-(furan-2-yl)-1H-pyrazolo[4,3-d]pyrimidin-7-yl)amino)phenyl)piperidin-4-ol]",0.01 to 0.1
7,"CC(C)(C)N1CCN(c2ccc(Nc3nc(-c4ccoc4)nc4cn[nH]c34)cc2)CC1 [Example 97, N-(4-(4-(tert-butyl)piperazin-1-yl)phenyl)-5-(furan-3-yl)-1H-pyrazolo[4,3-d]pyrimidin-7-amine]",0.01 to 0.1
8,"COCCn1ccc(Nc2nc(C3CCC3)nc3cn[nH]c23)cc1=O [Example 226, 4-((5-cyclobutyl-1H-pyrazolo[4,3-d]pyrimidin-7-yl)amino)-1-(2-methoxyethyl)pyridin-2(1H)-one]",0.1 to 1
9,"Fc1cc2cn[nH]c2cc1-c1nc(Nc2ccc(N3CCOCC3)cc2)c2[nH]ncc2n1 [Example 77, 5-(5-fluoro-1H-indazol-6-yl)-N-(4-morpholinophenyl)-1H-pyrazolo[4,3-d]pyrimidin-7-amine]",0.01 to 0.1
10,"COc1cc(Nc2nc(-c3cccs3)nc3cn[nH]c23)ccc1N1CCOCC1 [Example 37, N-(3-methoxy-4-morpholinophenyl)-5-(thiophen-2-yl)-1H-pyrazolo[4,3-d]pyrimidin-7-amine]",0.1 to 1
11,"COCC(C)(C)n1cc(Nc2nc(C3CC3)nc3cn[nH]c23)cn1 [Example 283, 5-cyclopropyl-N-(1-(1-methoxy-2-methylpropan-2-yl)-1H-pyrazol-4-yl)-1H-pyrazolo[4,3-d]pyrimidin-7-amine]",0.01 to 0.1
12,"COc1cc(Nc2nc(-c3c(F)cccc3F)nc3cn[nH]c23)ccc1N1CCOCC1 [Example 12, 5-(2,6-difluorophenyl)-N-(3-methoxy-4-morpholinophenyl)-1H-pyrazolo[4,3-d]pyrimidin-7-amine]",< 0.01
13,"COCCn1ncc(Nc2nc(-c3ccco3)nc3cn[nH]c23)c1N(C)C [Example 404, N4-(5-(furan-2-yl)-1H-pyrazolo[4,3-d]pyrimidin-7-yl)-1-(2-methoxyethyl)-N5,N5-dimethyl-1H-pyrazole-4,5-diamine]",0.1 to 1
14,"c1cc(-c2nc(Nc3ccc(N4CCOCC4)cc3)c3[nH]ncc3n2)co1 [Example 94, 5-(furan-3-yl)-N-(4-morpholinophenyl)-1H-pyrazolo[4,3-d]pyrimidin-7-amine]",0.01 to 0.1
15,"CC(C)(C)N1CCN(c2ccc(Nc3nc(-c4ccccc4F)nc4cn[nH]c34)cc2)CC1 [Example 23, N-(4-(4-(tert-butyl)piperazin-1-yl)phenyl)-5-(2-fluorophenyl)-1H-pyrazolo[4,3-d]pyrimidin-7-amine]",0.1 to 1
16,"CC(=O)N1CCN(c2ccc(Nc3nc(-c4ccco4)nc4cn[nH]c34)cc2)CC1 [Example 111, 1-(4-(4-((5-(furan-2-yl)-1H-pyrazolo[4,3-d]pyrimidin-7-yl)amino)phenyl)piperazin-1-yl)ethan-1-one]",0.01 to 0.1
17,"COc1cc(Nc2nc(-c3c(C)cccc3F)nc3cn[nH]c23)ccc1N1CCOCC1 [Example 481, 5-(2-fluoro-6-methylphenyl)-N-(3-methoxy-4-morpholinophenyl)-1H-pyrazolo[4,3-d]pyrimidin-7-amine]",0.1 to 1

# More lines, now with the values ahead:
row,IC50 [µM],Structure (SMILES)
1,0.01 to 0.1,"c1cc(-c2nc(Nc3cnn(C4CCOCC4)c3)c3[nH]ncc3n2)co1 [Example 110, 5-(furan-3-yl)-N-(1-(tetrahydro-2H-pyran-4-yl)-1H-pyrazol-4-yl)-1H-pyrazolo[4,3-d]pyrimidin-7-amine]"
2,0.01 to 0.1,"CC(C)Cn1cc(Nc2nc(-c3ccc4cn[nH]c4c3)nc3cn[nH]c23)cn1 [Example 423, 5-(1H-indazol-6-yl)-N-(1-isobutyl-1H-pyrazol-4-yl)-1H-pyrazolo[4,3-d]pyrimidin-7-amine]"
3,0.01 to 0.1,"CC(C)Cn1cc(Nc2nc(-c3ccoc3)nc3cn[nH]c23)cn1 [Example 240, 5-(furan-3-yl)-N-(1-isobutyl-1H-pyrazol-4-yl)-1H-pyrazolo[4,3-d]pyrimidin-7-amine]"
4,0.01 to 0.1,"CC(C)Cn1cc(Nc2nc(-c3ccco3)nc3cn[nH]c23)cn1 [Example 238, 5-(furan-2-yl)-N-(1-isobutyl-1H-pyrazol-4-yl)-1H-pyrazolo[4,3-d]pyrimidin-7-amine]"
5,0.01 to 0.1,"CC(C)n1cc(Nc2nc(-c3cnn(C)c3)nc3cn[nH]c23)cn1 [Example 420, N-(1-isopropyl-1H-pyrazol-4-yl)-5-(1-methyl-1H-pyrazol-4-yl)-1H-pyrazolo[4,3-d]pyrimidin-7-amine]"
6,< 0.01,"CC(C)n1cc(Nc2nc(C3CCC3)nc3cn[nH]c23)cn1 [Example 223, 5-cyclobutyl-N-(1-isopropyl-1H-pyrazol-4-yl)-1H-pyrazolo[4,3-d]pyrimidin-7-amine]"
7,0.01 to 0.1,"CN1CCC(n2cc(Nc3nc(-c4cnn(C)c4)nc4cn[nH]c34)cn2)CC1 [Example 190, 5-(1-methyl-1H-pyrazol-4-yl)-N-(1-(1-methylpiperidin-4-yl)-1H-pyrazol-4-yl)-1H-pyrazolo[4,3-d]pyrimidin-7-amine]"
8,< 0.01,"COCCCn1cc(Nc2nc(-c3cocn3)nc3cn[nH]c23)cn1 [Example 245, N-(1-(3-methoxypropyl)-1H-pyrazol-4-yl)-5-(oxazol-4-yl)-1H-pyrazolo[4,3-d]pyrimidin-7-amine]"
9,0.01 to 0.1,"CC(C)(C)n1cc(Nc2nc(C3CC3)nc3cn[nH]c23)cn1 [Example 228, N-(1-(tert-butyl)-1H-pyrazol-4-yl)-5-cyclopropyl-1H-pyrazolo[4,3-d]pyrimidin-7-amine]"
10,0.01 to 0.1,"CC(C)n1cc(Nc2nc(-c3cccc(NS(C)(=O)=O)c3)nc3cn[nH]c23)cn1 [Example 259, N-(3-(7-((1-isopropyl-1H-pyrazol-4-yl)amino)-1H-pyrazolo[4,3-d]pyrimidin-5-yl)phenyl)methanesulfonamide]"
11,0.1 to 1,"COc1ccc(Nc2nc(-c3cccc(C(=O)Nc4ccc(-c5ncco5)cc4)c3)nc3cn[nH]c23)cc1OC [Example 321, 3-(7-((3,4-dimethoxyphenyl)amino)-1H-pyrazolo[4,3-d]pyrimidin-5-yl)-N-(4-(oxazol-2-yl)phenyl)benzamide]"
12,0.01 to 0.1,"Cn1cc(-c2nc(Nc3cnn(C4CCOCC4)c3)c3[nH]ncc3n2)cn1 [Example 122, 5-(1-methyl-1H-pyrazol-4-yl)-N-(1-(tetrahydro-2H-pyran-4-yl)-1H-pyrazol-4-yl)-1H-pyrazolo[4,3-d]pyrimidin-7-amine]"
13,0.1 to 1,"Cc1nn(C(C)C)cc1Nc1nc(-c2ccoc2)nc2cn[nH]c12 [Example 292, 5-(furan-3-yl)-N-(1-isopropyl-3-methyl-1H-pyrazol-4-yl)-1H-pyrazolo[4,3-d]pyrimidin-7-amine]"
14,0.01 to 0.1,"CC(=O)N1CCN(c2ccc(Nc3nc(-c4cnn(C)c4)nc4cn[nH]c34)cc2)CC1 [Example 187, 1-(4-(4-((5-(1-methyl-1H-pyrazol-4-yl)-1H-pyrazolo[4,3-d]pyrimidin-7-yl)amino)phenyl)piperazin-1-yl)ethan-1-one]"
15,0.1 to 1,"CC(C(=O)O)n1cc(Nc2nc(-c3ccoc3)nc3cn[nH]c23)cn1 (centres unmarked) [Example 486, 2-(4-((5-(furan-3-yl)-1H-pyrazolo[4,3-d]pyrimidin-7-yl)amino)-1H-pyrazol-1-yl)propanoic acid]"
16,0.01 to 0.1,"c1nn(C2CCOCC2)cc1Nc1nc(-c2ccc3[nH]ncc3c2)nc2cn[nH]c12 [Example 178, 5-(1H-indazol-5-yl)-N-(1-(tetrahydro-2H-pyran-4-yl)-1H-pyrazol-4-yl)-1H-pyrazolo[4,3-d]pyrimidin-7-amine]"
17,0.01 to 0.1,"c1coc(-c2nc(Nc3cnn(C4CC4)c3)c3[nH]ncc3n2)c1 [Example 278, N-(1-cyclopropyl-1H-pyrazol-4-yl)-5-(furan-2-yl)-1H-pyrazolo[4,3-d]pyrimidin-7-amine]"
18,0.1 to 1,"COCCn1cc(Nc2nc(-c3ncco3)nc3cn[nH]c23)cn1 [Example 256, N-(1-(2-methoxyethyl)-1H-pyrazol-4-yl)-5-(oxazol-2-yl)-1H-pyrazolo[4,3-d]pyrimidin-7-amine]"
19,0.1 to 1,"COCCCn1cc(Nc2nc(-c3cccc(S(N)(=O)=O)c3)nc3cn[nH]c23)cn1 [Example 424, 3-(7-((1-(3-methoxypropyl)-1H-pyrazol-4-yl)amino)-1H-pyrazolo[4,3-d]pyrimidin-5-yl)benzenesulfonamide]"
20,0.01 to 0.1,"COCCCn1cc(Nc2nc(-c3ccc4cn[nH]c4c3)nc3cn[nH]c23)cn1 [Example 419, 5-(1H-indazol-6-yl)-N-(1-(3-methoxypropyl)-1H-pyrazol-4-yl)-1H-pyrazolo[4,3-d]pyrimidin-7-amine]"
21,0.01 to 0.1,"c1ccc2oc(-c3nc(Nc4cnn(C5CCOCC5)c4)c4[nH]ncc4n3)nc2c1 [Example 446, 5-(benzo[d]oxazol-2-yl)-N-(1-(tetrahydro-2H-pyran-4-yl)-1H-pyrazol-4-yl)-1H-pyrazolo[4,3-d]pyrimidin-7-amine]"
